Assays:
[1] = test system: Russian thistle (Salsola iberica L; SASKR); test: Postemergence herbicidal activity, greenhouse, visual injury: Russian thistle; assay type: in vivo; parameters: key: visual injury, 0–100%: 0 = no injury, 100 = complete kill
Procedure, shortened: (§1)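 Greenhouse, 18/17 °C, 14 h light; seedlings at 2–3 leaves; Compound 1 salts/ester ± safener in Agri-dex 1.5%, 187 L/ha overhead spray; sub-irrigation; visual % injury at 20-22 d; synergy via Colby.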

[2] = test system: wheat (Triticum aestivum L; TRZAW); test: Postemergence herbicidal safening, greenhouse, visual injury: wheat (TRZAW); assay type: in vivo
Procedure, shortened: as §1

barley (HORVW) = test: Postemergence herbicidal safening, greenhouse, visual injury: barley (HORVW)
[3] = test system: barley (Hordeum vulgare L; HORVS); test: Postemergence herbicidal safening, greenhouse, visual injury: barley; assay type: in vivo; parameters: key to HORVS Ob (Observed values): % visual injury: 0 = no injury, 100 = complete kill
Procedure, shortened: as §1

[4] = test system: corn poppy (Papaver rhoeas L; PAPRH); test: Postemergence herbicidal activity, greenhouse, visual injury: corn poppy; assay type: in vivo
Procedure, shortened: (§2)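 Track-sprayer application, 187 L/ha, of Compound 1 (methyl ester, TEA or K salt) in two-way mixes with safeners, diluted from acetone/DMSO 97:3 stocks into 1.5% Agri-dex. Plants at 2–3 true leaves, sub-irrigated. Visual rating 0–100% vs solvent blank after 20-22 d.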

[5] = test system: durum wheat (Triticum durum L; TRZDU); test: Postemergence herbicidal safening, greenhouse, visual injury: durum wheat; assay type: in vivo
Procedure, shortened: as §1

[6] = test system: wild buckwheat (Polygonum convolvulus L; POLCO); test: Postemergence herbicidal activity, greenhouse, visual injury: wild buckwheat; assay type: in vivo
Procedure, shortened: as §1

[7] = test system: chickweed (Stellaria media L; STEME); test: Postemergence herbicidal activity, greenhouse, visual injury: chickweed; assay type: in vivo; parameters: key: visual injury, 0–100%: 0 = no injury, 100 = complete kill
Procedure, shortened: as §1

[8] = test system: bird's-eye speedwell (Veronica persica L; VERPE); test: Postemergence herbicidal activity, greenhouse, visual injury: bird's-eye speedwell; assay type: in vivo; parameters: key: visual injury, 0–100%: 0 = no injury, 100 = complete kill
Procedure, shortened: as §1

[9] = test system: cleavers (Galium aparine L; GALAP); test: Postemergence herbicidal activity, greenhouse, visual injury: cleavers; assay type: in vivo; parameters: key: visual injury, 0–100%: 0 = no injury, 100 = complete kill
Procedure, shortened: as §1

[10] = test system: wild pansy (Viola tricolor L; VIOTR); test: Postemergence herbicidal activity, greenhouse, visual injury: wild pansy; assay type: in vivo; parameters: key: visual injury, 0–100%: 0 = no injury, 100 = complete kill
Procedure, shortened: as §2

[11] = test system: wheat (Triticum aestivum L; TRZAS); test: Postemergence herbicidal safening, greenhouse, visual injury: wheat; assay type: in vivo
Procedure, shortened: as §1

[12] = test system: purple deadnettle (Lamium purpureum L; LAMPU); test: Postemergence herbicidal activity, greenhouse, visual injury: purple deadnettle; assay type: in vivo
Procedure, shortened: as §2

[13] = test system: kochia (Kochia scoparia L; KCHSC); test: Postemergence herbicidal activity, greenhouse, visual injury: kochia; assay type: in vivo; parameters: key: % visual injury: 0 = no injury, 100 = complete kill
Description: (§3) Evaluation of Postemergence Herbicidal Safening in Cereal Crops
(§4) Seeds of the desired test plant species were planted in Sun Gro MetroMix® 306 planting mixture, which typically has a pH of 6.0 to 6.8 and an organic matter content of about 30 percent, in plastic pots with a surface area of 103.2 square centimeters (cm^2). When required to ensure good germination and healthy plants, a fungicide treatment and/or other chemical or physical treatment was applied. The plants were grown for 7-36 days (d) in a greenhouse with an approximate 14-hour (h) photoperiod which was maintained at about 18° C. during the day and 17° C. during the night. Nutrients and water were added on a regular basis and supplemental lighting was provided with overhead metal halide 1000-Watt lamps as necessary. The plants were employed for testing when they reached the second or third true leaf stage.
(§5) Weighed amounts of esters (methyl) or salts (TEA [triethylammonium], K [potassium]) of 4-amino-3-chloro-6-(4-chloro-2-fluoro-3-methoxyphenyl)pyridine-2-carboxylic acid (Compound 1) were dissolved in a volume of 97:3 volume/volume (v/v) acetone/dimethylsulfoxide (DMSO) to obtain stock solutions. […] The concentrated stock solutions were diluted with an aqueous mixture of 1.5% v/v of Agri-dex crop oil concentrate to provide the appropriate application rates. Compound requirements are based upon a 12 mL application volume at a rate of 187 liters per hectare (L/ha). Stocks solutions of the safeners were prepared following the same procedure. Spray solutions of the safeners and experimental compound mixtures were prepared by adding the stock solutions to the appropriate amount of dilution solution to form a 12 mL spray solution with active ingredients in two-way combinations. Formulated compounds were applied to the plant material with an overhead Mandel track sprayer equipped with 8002E nozzles calibrated to deliver 187 L/ha over an application area of 0.503 square meters (m^2) at a spray height of 18 inches (43 centimeters (cm)) above average plant canopy. Control plants were sprayed in the same manner with the solvent blank.
(§6) The treated plants and control plants were placed in a greenhouse as described above and watered by sub-irrigation to prevent wash-off of the test compounds. After 20-22 d, the condition of the test plants as compared with that of the control plants was determined visually and scored on a scale of 0 to 100 percent where 0 corresponds to no injury and 100 corresponds to complete kill.
(§7) Colby's equation was used to determine the herbicidal effects expected from the mixtures (Colby, S. R. Calculation of the synergistic and antagonistic response of herbicide combinations. Weeds 1967, 15, 20-22.).
(§8) The following equation was used to calculate the expected activity of mixtures containing two active ingredients, A and B: Expected=A+B−(A×B/100)
(§9) A=observed efficacy of active ingredient A at the same concentration as used in the mixture.
(§10) B=observed efficacy of active ingredient B at the same concentration as used in the mixture.

[14] = test system: scented mayweed (Matricaria chamomila L; MATCH); test: Postemergence herbicidal activity, greenhouse, visual injury: scented mayweed; assay type: in vivo; parameters: key: % visual injury: 0 = no injury, 100 = complete kill
Description: as §3, §4, §5, §6, §7, §8, §9, §10

C=CCN(CC=C)C(=O)C(Cl)Cl [Dichlormid, N,N-diallyl-2,2-dichloroacetamide, reference compound]
0: HORVS Ob (Observed values) ([3]; safener 4.4 g/ha alone) | HORVS Ob (Observed values) ([3]; safener 8.8 g/ha alone) | HORVS Ob (Observed values) ([3]; safener 17.5 g/ha alone) | HORVS Ob (Observed values) ([3]; safener 35 g/ha alone) | PAPRH Ob (Observed values) ([4]; safener 4.4 g/ha alone) | PAPRH Ob (Observed values) ([4]; safener 8.8 g/ha alone) | PAPRH Ob (Observed values) ([4]; safener 17.5 g/ha alone) | PAPRH Ob (Observed values) ([4]; safener 35 g/ha alone) | LAMPU Ob (Observed values) ([12]; safener 4.4 g/ha alone) | LAMPU Ob (Observed values) ([12]; safener 8.8 g/ha alone) | LAMPU Ob (Observed values) ([12]; safener 17.5 g/ha alone) | LAMPU Ob (Observed values) ([12]; safener 35 g/ha alone)
0%: SASKR Ob ([1]; applied alone at 17.5 g/ha) | SASKR Ob ([1]; applied alone at 35 g/ha) | SASKR Ob ([1]; applied alone at 70 g/ha) | SASKR Ob ([1]; applied alone at 140 g/ha) | TRZAW Ob (Observed values) ([2]; safener 4.4 g/ha alone) | TRZAW Ob (Observed values) ([2]; safener 8.8 g/ha alone) | TRZAW Ob (Observed values) ([2]; safener 17.5 g/ha alone) | TRZAW Ob (Observed values) ([2]; safener 35 g/ha alone) | HORVW Ob (Observed values) (barley (HORVW); safener 4.4 g/ha alone) | HORVW Ob (Observed values) (barley (HORVW); safener 8.8 g/ha alone) | HORVW Ob (Observed values) (barley (HORVW); safener 17.5 g/ha alone) | HORVW Ob (Observed values) (barley (HORVW); safener 35 g/ha alone) | HORVS Ob ([3]; applied alone at 17.5 g/ha) | HORVS Ob ([3]; applied alone at 35 g/ha) | HORVS Ob ([3]; applied alone at 70 g/ha) | HORVS Ob ([3]; applied alone at 140 g/ha) | PAPRH Ob ([4]; applied alone at 17.5 g/ha) | PAPRH Ob ([4]; applied alone at 35 g/ha) | PAPRH Ob ([4]; applied alone at 70 g/ha) | PAPRH Ob ([4]; applied alone at 140 g/ha) | TRZDU Ob (Observed values) ([5]; safener 4.4 g/ha alone) | TRZDU Ob (Observed values) ([5]; safener 8.8 g/ha alone) | TRZDU Ob (Observed values) ([5]; safener 17.5 g/ha alone) | TRZDU Ob (Observed values) ([5]; safener 35 g/ha alone) | POLCO Ob ([6]; applied alone at 17.5 g/ha) | POLCO Ob ([6]; applied alone at 35 g/ha) | POLCO Ob ([6]; applied alone at 70 g/ha) | POLCO Ob ([6]; applied alone at 140 g/ha) | STEME Ob ([7]; applied alone at 17.5 g/ha) | STEME Ob ([7]; applied alone at 35 g/ha) | STEME Ob ([7]; applied alone at 70 g/ha) | STEME Ob ([7]; applied alone at 140 g/ha) | VERPE Ob ([8]; applied alone at 17.5 g/ha) | VERPE Ob ([8]; applied alone at 35 g/ha) | VERPE Ob ([8]; applied alone at 70 g/ha) | VERPE Ob ([8]; applied alone at 140 g/ha) | GALAP Ob ([9]; applied alone at 17.5 g/ha) | GALAP Ob ([9]; applied alone at 35 g/ha) | GALAP Ob ([9]; applied alone at 70 g/ha) | GALAP Ob ([9]; applied alone at 140 g/ha) | VIOTR Ob ([10]; applied alone at 17.5 g/ha) | VIOTR Ob ([10]; applied alone at 35 g/ha) | VIOTR Ob ([10]; applied alone at 70 g/ha) | VIOTR Ob ([10]; applied alone at 140 g/ha) | TRZAS Ob ([11]; applied alone at 17.5 g/ha) | TRZAS Ob ([11]; applied alone at 35 g/ha) | TRZAS Ob ([11]; applied alone at 70 g/ha) | TRZAS Ob ([11]; applied alone at 140 g/ha) | LAMPU Ob ([12]; applied alone at 17.5 g/ha) | LAMPU Ob ([12]; applied alone at 35 g/ha) | LAMPU Ob ([12]; applied alone at 70 g/ha) | LAMPU Ob ([12]; applied alone at 140 g/ha) | KCHSC Ob ([13]; applied alone at 17.5 g/ha) | KCHSC Ob ([13]; applied alone at 35 g/ha) | KCHSC Ob ([13]; applied alone at 70 g/ha) | KCHSC Ob ([13]; applied alone at 140 g/ha) | MATCH Ob ([14]; applied alone at 17.5 g/ha) | MATCH Ob ([14]; applied alone at 35 g/ha) | MATCH Ob ([14]; applied alone at 70 g/ha) | MATCH Ob ([14]; applied alone at 140 g/ha)
